We go through eight compounds from patent US11331314B2, “Amine substituted triazole derivatives and uses thereof” (Bayer Pharma Aktiengesellschaft, priority 2017, dated 2022).

pIC50: −log10 of the molar value.

The target of one assay is human V1a receptor (Homo sapiens, UniProt P37288). Put plainly: Cellular in vitro assay for determining vasopressin receptor activity, V1a receptor cell line (photoprotein luminescence). In kind it is cell-based. The conditions noted are these: for pIC50: CHO cell line transfected with the human V1a receptor, agonist [Arg8]-vasopressin at EC50 concentration, read-out: IC50 hV1a; for ratio IC50 hV2/hV1a: selectivity ratio of the cellular IC50 values. As to the method: (§1) B-1. Cellular In Vitro Assay for Determining Vasopressin Receptor Activity
human V1a receptor, sequence (P37288 whole entry): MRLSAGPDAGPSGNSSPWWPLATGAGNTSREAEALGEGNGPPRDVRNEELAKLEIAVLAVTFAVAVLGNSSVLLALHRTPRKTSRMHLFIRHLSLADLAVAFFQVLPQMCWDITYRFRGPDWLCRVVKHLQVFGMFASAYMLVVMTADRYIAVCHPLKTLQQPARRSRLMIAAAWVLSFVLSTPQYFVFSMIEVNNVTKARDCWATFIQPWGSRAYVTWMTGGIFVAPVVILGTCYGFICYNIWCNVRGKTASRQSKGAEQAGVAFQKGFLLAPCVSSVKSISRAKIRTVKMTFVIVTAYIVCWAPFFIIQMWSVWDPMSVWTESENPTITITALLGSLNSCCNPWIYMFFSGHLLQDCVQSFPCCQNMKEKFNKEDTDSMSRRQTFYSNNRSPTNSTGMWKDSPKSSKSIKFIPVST
(§2) The identification of agonists and antagonists of the V1a and V2 vasopressin receptors from humans, rats and dogs as well as the quantification of the activity of the compounds of the invention is carried out using recombinant cell lines. These cell lines originally derive from a hamster's ovary epithelial cell (Chinese Hamster Ovary, CHO K1, ATCC: American Type Culture Collection, Manassas, Va. 20108, USA). The test cell lines constitutively express the human, rat or dog V1a or V2 receptors. In case of the Gαq-coupled V1a receptors, cells are also stably transfected with a modified form of the calcium-sensitive photoproteins aequorin (human and rat V1a) or obelin (dog V1a), which, after reconstitution with the cofactor coelenterazine, emit light when there are increases in free calcium concentrations [Rizzuto R, Simpson A W, Brini M, Pozzan T, Nature 358, 325-327 (1992); Illarionov B A, Bondar V S, Illarionova V A, Vysotski E S, Gene 153 (2), 273-274 (1995)]. The resulting vasopressin receptor cells react to stimulation of the recombinantly expressed V1a receptors by intracellular release of calcium ions, which can be quantified by the resulting photoprotein luminescence. The Gs-coupled V2 receptors are stably transfected into cell lines expressing the gene for firefly luciferase under control of a CRE-responsible promoter. Activation of V2 receptors induces the activation of the CRE-responsive promoter via cAMP increase, thereby inducing the expression of firefly luciferase. The light emitted by photoproteins of V1a cell lines as well as the light emitted by firefly luciferase of V2 cell lines corresponds to the activation or inhibition of the respective vasopressin receptor. The bioluminescence of the cell lines is detected using a suitable luminometer [Milligan G, Marshall F, Rees S, Trends in Pharmacological Sciences 17, 235-237 (1996)].
Vasopressin V1a Receptor Cell Lines:
On the day before the assay, the cells are plated out in culture medium (DMEM/F12, 2% FCS, 2 mM glutamine, 10 mM HEPES, 5 μg/ml coelenterazine) in 384-well microtiter plates and kept in a cell incubator (96% humidity, 5% v/v CO2, 37° C.). On the day of the assay, test compounds in various concentrations are placed for 10 minutes in the wells of the microtiter plate before the agonist [Arg^8]-vasopressin at EC50 concentration is added. The resulting light signal is measured immediately in a luminometer.
(§3) Table 1A below lists individual IC50 values for the compounds of the invention (including racemic mixtures as well as separated enantiomers) that were obtained from cell lines transfected with the human V1a or V2 receptor: […]

Another assay concerns the target T1, human V2 receptor (Homo sapiens, UniProt P30518).
T1 construct: expressed in transfected cells; host or cells: CHO K1 (ATCC) expressing firefly luciferase under a CRE-responsive promoter
As to the kind of experiment: Cellular in vitro assay for determining vasopressin receptor activity, V2 receptor cell line (CRE-luciferase). In kind it is cell-based. The conditions noted are these: CHO cell line transfected with the human V2 receptor; agonist [Arg8]-vasopressin at EC50 concentration; read-out: IC50 hV2. How it is done:
as §1, §2
Vasopressin V2 Receptor Cell Lines:
On the day before the assay, the cells are plated out in culture medium (DMEM/F12, 2% FCS, 2 mM glutamine, 10 mM HEPES) in 384-well microtiter plates and kept in a cell incubator (96% humidity, 5% v/v CO2, 37° C.). On the day of the assay, test compounds in various concentrations and the agonist [Arg^8]-vasopressin at EC50 concentration are added together to the wells, and plates are incubated for 3 hours in a cell incubator. Upon addition of the cell lysis reagent Triton™ and the substrate luciferin, luminescence of firefly luciferase is measured in a luminometer.
as §3

T1 sequence (P30518 whole entry): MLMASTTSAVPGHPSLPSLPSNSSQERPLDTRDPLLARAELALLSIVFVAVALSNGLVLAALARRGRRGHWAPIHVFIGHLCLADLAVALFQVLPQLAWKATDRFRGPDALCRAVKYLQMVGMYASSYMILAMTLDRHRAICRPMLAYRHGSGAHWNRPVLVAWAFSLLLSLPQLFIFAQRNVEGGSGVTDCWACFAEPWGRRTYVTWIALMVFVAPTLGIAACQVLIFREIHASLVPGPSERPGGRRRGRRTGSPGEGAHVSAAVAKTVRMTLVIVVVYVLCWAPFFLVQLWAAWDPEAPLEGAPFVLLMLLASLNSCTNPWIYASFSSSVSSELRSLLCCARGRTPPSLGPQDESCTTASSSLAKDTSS

One may read the pIC50 as the IC50 on a negative log10 scale, so that one unit is a factor of ten. With `O=c1n(Cc2nc(N3CC(F)(F)C3)n(-c3ccccc3Cl)n2)nc(-c2ccc(Cl)cc2)n1C[C@H](O)C(F)(F)F` [Example 81, 5-(4-Chlorophenyl)-2-{[1-(2-chlorophenyl)-5-(3,3-difluoroazetidin-1-yl)-1H-1,2,4-triazol-3-yl]methyl}-4-[(2S)-3,3,3-trifluoro-2-hydroxypropyl]-2,4-dihydro-3H-1,2,4-triazol-3-one], the values for the negative-log IC50 (pIC50) on human V1a receptor and on human V2 receptor were 8.80 and 7.75, respectively. The “ratio IC50 hV2/hV1a” value on human V1a receptor turned out to be 11.0.

As for `O=c1n(Cc2nc(N3CC4(COC4)C3)n(-c3ccccc3Cl)n2)nc(-c2ccc(Cl)cc2)n1C[C@H](O)C(F)(F)F` [Example 86, 5-(4-Chlorophenyl)-2-{[1-(2-chlorophenyl)-5-(2-oxa-6-azaspiro[3.3]hept-6-yl)-1H-1,2,4-triazol-3-yl]methyl}-4-[(2S)-3,3,3-trifluoro-2-hydroxypropyl]-2,4-dihydro-3H-1,2,4-triazol-3-one], on human V1a receptor, the negative logarithm of the IC50 (pIC50) is 9.01 and the “ratio IC50 hV2/hV1a” value turned out to be 6.8. In addition, the pIC50 on human V2 receptor is 8.18.

Take `CS(=O)(=O)NCCNc1nc(Cn2nc(-c3ccc(Cl)cc3)n(C[C@H](O)C(F)(F)F)c2=O)nn1-c1ccccc1Cl` [Example 24, N-(2-{[1-(2-Chlorophenyl)-3-({3-(4-chlorophenyl)-5-oxo-4-[(2S)-3,3,3-trifluoro-2-hydroxypropyl]-4,5-dihydro-1H-1,2,4-triazol-1-yl}methyl)-1H-1,2,4-triazol-5-yl]amino}ethyl)methanesulfonamide]: at human V1a receptor, the negative-log IC50 (pIC50) is 9.40 and the “ratio IC50 hV2/hV1a” value is 2.6. The pIC50 at human V2 receptor was 8.99.

For `O=C1CN(c2nc(Cn3nc(-c4ccc(Cl)cc4)n(C[C@H](O)C(F)(F)F)c3=O)nn2-c2ncccc2Cl)CCN1` [Example 97, 4-[3-({3-(4-Chlorophenyl)-5-oxo-4-[(2S)-3,3,3-trifluoro-2-hydroxypropyl]-4,5-dihydro-1H-1,2,4-triazol-1-yl}methyl)-1-(3-chloropyridin-2-yl)-1H-1,2,4-triazol-5-yl]piperazin-2-one], on human V1a receptor, the pIC50 was 9.25 and the “ratio IC50 hV2/hV1a” value was 176.9. The negative logarithm of the IC50 (pIC50) on human V2 receptor is 7.00.

As to `O=c1n(Cc2nc(NCC3(O)CCC3)n(-c3ccccc3Cl)n2)nc(-c2ccc(Cl)cc2)n1C[C@H](O)C(F)(F)F` [Example 52, 5-(4-Chlorophenyl)-2-{[1-(2-chlorophenyl)-5-{[(1-hydroxycyclobutyl)methyl]amino}-1H-1,2,4-triazol-3-yl]methyl}-4-[(2S)-3,3,3-trifluoro-2-hydroxypropyl]-2,4-dihydro-3H-1,2,4-triazol-3-one], on human V1a receptor, the negative logarithm of the IC50 (pIC50) was 9.19 and the “ratio IC50 hV2/hV1a” value was found to be 1.3. Moreover, the pIC50 at human V2 receptor was 9.08.

Consider `O=c1n(Cc2nc(NCCO)n(-c3cccc(F)c3)n2)nc(-c2ccc(Cl)cc2)n1C[C@H](O)C(F)(F)F` [Example 123, 5-(4-Chlorophenyl)-2-({1-(3-fluorophenyl)-5-[(2-hydroxyethyl)amino]-1H-1,2,4-triazol-3-yl}methyl)-4-[(2S)-3,3,3-trifluoro-2-hydroxypropyl]-2,4-dihydro-3H-1,2,4-triazol-3-one], for which, on human V1a receptor, the pIC50 is 8.67 and the “ratio IC50 hV2/hV1a” value was found to be 2.1. For the same compound, the pIC50 on human V2 receptor is 8.34.

Turning to `O=C(CNc1nc(Cn2nc(-c3ccc(Cl)cc3)n(C[C@H](O)C(F)(F)F)c2=O)nn1-c1ccccc1Cl)NCC(F)(F)F` [Example 40, N^2-[1-(2-Chlorophenyl)-3-({3-(4-chlorophenyl)-5-oxo-4-[(2S)-3,3,3-trifluoro-2-hydroxypropyl]-4,5-dihydro-1H-1,2,4-triazol-1-yl}methyl)-1H-1,2,4-triazol-5-yl]-N-(2,2,2-trifluoroethyl)glycinamide], on human V1a receptor, the pIC50 is 9.14 and the “ratio IC50 hV2/hV1a” value was 10.1. For the same compound, the negative logarithm of the IC50 (pIC50) at human V2 receptor was 8.14.

As for `O=c1n(Cc2nc(N3CCNC(C(F)(F)F)C3)n(CCC(F)(F)F)n2)nc(-c2ccc(Cl)cc2)n1C[C@H](O)C(F)(F)F` (single isomer, unassigned) [Example 107], at human V1a receptor, the pIC50 is 7.36 and the “ratio IC50 hV2/hV1a” value was 18.1. In addition, the pIC50 on human V2 receptor was 6.11.
